For one experiment, the system named is human MC3R. As to the kind of experiment: pGlo cAMP accumulation assay. Format: cell-based. The settings on record: cells transiently expressing human MC3R, up to 10 μM, three independent experiments in technical triplicate. As to the method: (§1) Following functional analysis at MC4R, we were intrigued to know how selective Pr4LP1 and Ar3LP1 were for MC4R vs other melanocortin receptors.
(§2) Figure 6 Selectivity determination of Pr4LP1 and Ar3LP1 peptides at MC4R vs MC1R and MC3R. […] Data (not normalized) are represented as mean ± SEM from three independent experiments performed in technical triplicate.
(§3) Cells transiently expressing human MC1R, MC3R, or MC4R were incubated for 24 h. Afterward all contents of each well were carefully removed, and cells were then equilibrated in cAMP buffer [1× HBSS, 24 mM HEPES, 0.1% (w/v) BSA, 3.96 mM NaHCO3, 1 mM MgSO4, 1.3 mM CaCl2 dihydrate], supplemented with firefly D-luciferin free acid (0.45 mg/mL) (NanoLight Technology). 90 μL of cAMP buffer was added to all wells, and the 96-well plate was then incubated (28 °C, 1 h). Bioluminescence was measured using the CLARIOstar Plus Plate Reader (BMG LabTech). Prior to injecting the treatment ligands, approximately 5–10 basal readings were performed until stabilization was reached. Peptide ligands (10 μL) were added to the well. Bioluminescence was measured for a total of 30 cycles (1 min per cycle, 1 s integration time, without filter, a fixed gain of 3000, and autofocus).
(cAMP levels reflect the balance of adenylyl cyclase and phosphodiesterase activity.)

Experiment [1] relates to human MC4R. As to the kind of experiment: pGlo cAMP accumulation assay. It counts as cell-based. The settings on record: cells transiently expressing human MC4R, 1 and 10 μM, three independent experiments in technical triplicate. On the procedure: as §1, §2, §3
The subject of a further experiment is human MC1R. As to the kind of experiment: pGlo cAMP accumulation assay. It counts as cell-based. The conditions noted are these: cells transiently expressing human MC1R, up to 10 μM, three independent experiments in technical triplicate. As to the method: as §1, §2, §3
For experiment [2], the target named is T1, human MC4R (Homo sapiens, UniProt P32245).
T1 construct: expressed in transfected cells; host or cells: HEK293T, transient co-transfection
T1 sequence (P32245 whole entry): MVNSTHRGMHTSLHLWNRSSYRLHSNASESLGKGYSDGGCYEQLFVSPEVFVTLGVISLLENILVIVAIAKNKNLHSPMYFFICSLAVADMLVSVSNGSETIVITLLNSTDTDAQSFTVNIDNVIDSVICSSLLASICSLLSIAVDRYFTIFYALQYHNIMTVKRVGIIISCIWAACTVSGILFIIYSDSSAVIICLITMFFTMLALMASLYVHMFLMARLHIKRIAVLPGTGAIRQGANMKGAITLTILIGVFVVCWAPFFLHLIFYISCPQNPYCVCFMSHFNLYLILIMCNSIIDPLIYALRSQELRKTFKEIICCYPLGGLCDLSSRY
T1 sequence (P32121 whole entry partner): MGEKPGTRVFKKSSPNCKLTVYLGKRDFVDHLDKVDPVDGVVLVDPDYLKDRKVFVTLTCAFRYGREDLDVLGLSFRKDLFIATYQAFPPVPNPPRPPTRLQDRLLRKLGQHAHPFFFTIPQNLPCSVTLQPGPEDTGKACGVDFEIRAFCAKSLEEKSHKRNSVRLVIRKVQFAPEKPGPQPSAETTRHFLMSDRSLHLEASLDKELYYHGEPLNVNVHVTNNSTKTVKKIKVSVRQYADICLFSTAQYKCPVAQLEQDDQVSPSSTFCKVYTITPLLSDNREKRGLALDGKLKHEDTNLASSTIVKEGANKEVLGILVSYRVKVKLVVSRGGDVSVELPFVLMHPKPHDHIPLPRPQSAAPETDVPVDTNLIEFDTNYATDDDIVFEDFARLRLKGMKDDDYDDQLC
As to the kind of experiment: nanoluciferase complementation assay MC4R-SmBit / β-arrestin-2-LgBit (β-arrestin-2 recruitment). Format: cell-based. The conditions noted are these: for increased potency in β-arrestin-2 recruitment as compared to α-MSH: ratio of EC50 values, nanoluciferase complementation MC4R-SmBit/β-arrestin-2-LgBit; for Emax: read-out: increase in efficacy (Emax) of β-arrestin-2 recruitment compared to α-MSH. On the procedure:
Figure 5 Biosensor characterization of Pr4LP1 and Ar3LP1 peptides acting as agonists at MC4R. […] Data are represented as means ± SEM for all experimental replicates and were performed in triplicate from n ≥ 3 independent experiments.
In an attempt to quantify signaling bias using the Black–Leff operational model by calculating ΔΔlog(τ/KA),[27]–[29] we identified a trend for preferred β-arrestin-2 recruitment over Gαs coupling, albeit not significant (data not shown).
The plasmid constructs used to show interactions between human MC4R and Gαs protein and/or β-arrestin-2 were designed with fused SmBit and LgBit proteins, that upon complementation form the fully functional nanoluciferase enzyme that can produce detectable bioluminescence upon addition of the substrate furimazine. For the Gαs coupling, we used a LgBit fused at the C-terminus of MC4R (MC4R-LgBit) and cotransfected with the Gαs-SmBit construct. For the β-arrestin-2 recruitment assay, we used a C-terminally fused MC4R-SmBit and the β-arrestin-2-LgBit constructs. The cotransfection ratio was 1:10 (Gαs/β-arrestin-2/receptor). Cells were harvested, washed, and resuspended in fresh medium 24 h post-transfection. Approximately 5 × 10^4 cells/well were distributed in precoated 96-well white plates and allowed to adhere overnight. On an experimental day, cells were washed with HBSS and maintained in HBSS (80 μL/well). The furimazine substrate for the luciferase (50×) stock was diluted at 1× with HBSS, and 10 μL/well was added to all assay wells and incubated for 12 min before addition of ligands. Ligand dilutions were prepared at 10× final concentration in HBSS, and 10 μL/well was added to the assay wells. Plates were read 5 min following ligand addition using a ClarioStar equipped with a nanoluc-compatible optic module (BMG Labtech). […] EC50/Emax values were calculated via a nonlinear regression analysis.
(Recruitment of arrestin is a read-out of receptor activation apart from second messengers.)

In another experiment the test system is mouse MC4R-EGFP. The experiment can be described thus: kinetic BRET β-arrestin-2 recruitment assay (MC4R-EGFP / β-arrestin-2-nanoluciferase). It counts as cell-based. The settings on record: ligand 10 μM; HEK293 cells, MC4R-EGFP and β-arrestin-2-NLuc; mean ligand-induced BRET from 312 to 2433 s, NDP-α-MSH set as 100; three independent experiments. On the procedure:
Considering the physiological relevance of β-arrestins and their critical role in orchestrating MC4R signaling, we measured β-arrestin-2 recruitment in a kinetic bioluminescence resonance energy transfer (BRET) assay. We screened at a ligand concentration of 10 μM in HEK293 cells transiently expressing MC4R coupled to EGFP, and β-arrestin-2 fused to nanoluciferase. […] By contrast, Pr4LP1, Ar3LP1, Ar3LP2, and GoLP1 recruited β-arrestin-2 with greater efficiencies (>130%) than NDP-α-MSH (Figures 4 and S5B,C).
Figure 4 β-Arrestin-2 recruitment of designed MC4R peptide analogues. BRET assay was used to measure the transient interaction of MC4R-EGFP with β-arrestin-2-nanoluciferase (NLuc) in HEK293 cells over time following cell treatment with 10 μM of tachyplesin-1-like peptides (Ta1LPs, green), protegrin-4-like peptides (Pr4LPs, pink), arenicin-3-like peptides (Ar3LPs, orange), and gomesin-like peptides (GoLPs, blue). Relative BRET quantification was determined by calculating the mean value of ligand-induced BRET for each peptide ligand from 312 to 2433 s which was then divided by the mean value of ligand-induced BRET of NDP-α-MSH set as 100. Data are shown as mean ± SEM from three independent experiments.
BRET assay was performed as previously described.[32] Briefly, β-arrestin-2-nano luciferase and mouse MC4R-EGFP were cotransfected in a 1:10 ratio. 16 h post-transfection, 50,000 cells in 100 μL of phenol red-free DMEM with 10% FBS per well were transferred into white clear bottom 96-well plates and incubated overnight. On the day of the assay, cells were incubated for 1 h at 37 °C in phenol red- and serum-free DMEM. Furimazine (diluted 1:50) and peptide ligands (4×) were prepared in Hank’s balanced salt solution (HBSS), respectively. Prior to establishing the baseline and measuring kinetic BRET, furimazine was incubated for 5 min at 37 °C. The ability of peptide ligands to induce β-arrestin-2 recruitment was assessed by measuring light emissions for EGFP (510 nm) and nanoluciferase (460 nm) over 35 min using Flexstation 3 (Molecular Devices, San Jose, USA). The BRET ratio was calculated as emission EGFP (510 nm)/emission nanoluciferase (460 nm). The ligand-induced BRET was calculated by subtracting […].

In another experiment the test system is MC4R over MC1R and MC3R. The settings on record: Figure S6.

Where a SMILES comes first, the peptide text is derived from it. Bridges are numbered along the chain shown (N, C = ends). [ ]: non-standard residue; d: D form.

In general, EC50 refers to the midpoint of the concentration-response curve. One may read the Emax as the maximal effect, on the per cent scale that the assay sets.

Regarding `CC(C)C[C@H](NC(=O)[C@H](CCCNC(=N)N)NC(=O)CNC(=O)CNC(=O)[C@@H](N)CCCNC(=N)N)C(=O)N[C@H]1CSSC[C@@H](C(=O)N[C@H](C(=O)NCC(=O)N[C@@H](CCCNC(=N)N)C(N)=O)C(C)C)NC(=O)[C@H](Cc2ccccc2)NC(=O)[C@@H]2CSSC[C@H](NC(=O)[C@H](Cc3ccc(O)cc3)NC1=O)C(=O)N1CCC[C@H]1C(=O)N[C@@H](Cc1c[nH]cn1)C(=O)N[C@H](Cc1ccccc1)C(=O)N[C@@H](Cc1c[nH]cn1)C(=O)N[C@@H](Cc1c[nH]c3ccccc13)C(=O)N2` [Pr4LP1] (H-RGGRLCYCPH[dF]HWCFCVGR-NH2; disulfide 6-16, 8-14), the “cAMP response at MC3R (RLU)” value with human MC3R is given as “no response”. The “cAMP response at MC4R (RLU)” value with human MC4R [1] is “activate the receptor”. For the same molecule, the “cAMP response at MC1R (RLU)” value in the experiment on human MC1R is reported as “no response”. In addition, on human MC4R [2], the half-maximal effective concentration (EC50) is 23.5 nM, the “increased potency in β-arrestin-2 recruitment as compared to α-MSH” value was “approximately 20 fold” and the Emax came to 99%. Further, the “BRET efficacy of β-arrestin-2 recruitment relative to NDP-α-MSH” value in the experiment with mouse MC4R-EGFP was greater than 130%. In addition, the “selectivity in recruiting β-arrestin-2” value in the experiment with MC4R over MC1R and MC3R was “selective for MC4R over MC1R and MC3R”.
In the case of `CC(C)[C@@H]1NC(=O)[C@H](Cc2ccc(O)cc2)NC(=O)[C@H](Cc2c[nH]c3ccccc23)NC(=O)[C@@H](NC(=O)[C@H](Cc2ccccc2)NC(=O)CN)CSSC[C@@H](C(=O)N[C@@H](CC(N)=O)C(N)=O)NC(=O)[C@H](CCCNC(=N)N)NC(=O)[C@H](CCCNC(=N)N)NC(=O)[C@H](Cc2ccc(O)cc2)NC(=O)[C@@H]2CSSC[C@H](NC1=O)C(=O)N1CCC[C@H]1C(=O)N[C@@H](Cc1c[nH]cn1)C(=O)N[C@H](Cc1ccccc1)C(=O)N[C@@H](Cc1c[nH]cn1)C(=O)N[C@@H](Cc1c[nH]c3ccccc13)C(=O)N2` [Ar3LP1] (H-GFCWYVCPH[dF]HWCYRRCN-NH2; disulfide 3-17, 7-13), the “cAMP response at MC3R (RLU)” value with human MC3R is given as “no response”. For the same molecule, the “cAMP response at MC4R (RLU)” value in the experiment on human MC4R [1] is on record as “activate the receptor”. Moreover, the “cAMP response at MC1R (RLU)” value in the experiment on human MC1R was “no response”. Further, at human MC4R [2], the EC50 is 25.2 nM, the “increased potency in β-arrestin-2 recruitment as compared to α-MSH” value was “approximately 20 fold” and the Emax was 82%. Besides, the “BRET efficacy of β-arrestin-2 recruitment relative to NDP-α-MSH” value in the experiment with mouse MC4R-EGFP is greater than 130%. Also, the “selectivity in recruiting β-arrestin-2” value in the experiment with MC4R over MC1R and MC3R was “selective for MC4R over MC1R and MC3R”.

The values above are taken from PMC10580383, “Development of Melanocortin 4 Receptor Agonists by Exploiting Animal-Derived Macrocyclic, Disulfide-Rich Peptide Scaffolds” (ACS Pharmacology & Translational Science, 2023).
